In PubChem BioAssay AID248 (DTP/NCI, 2004):
“And” between values parts separate entries of the source, which are not always exact repeats. Identical values can stand only once. Inconclusive results and toxic doses are left out. No stated cut-off is given here; in the data, active means T/C of 150% or more; inactive means T/C below 125%.

Tested on: L1210 leukemia ip in BDF1 mice, survival T/C
Test: NCI In Vivo Anticancer Drug Screen. Data for tumor model L1210 Leukemia (intraperitoneal) in B6D2F1 (BDF1) mice
Conditions: endpoint: mean survival time, higher = longer survival
Outline: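 Transplanted-tumor mice were given test agent; controls received vehicle only. Survival readings from the two groups were divided (treated over control).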

[1] = dose: 100.0 mg/kg/injection, schedule: Q01DX009 (ip), vehicle: saline
[2] = dose: 200.0 mg/kg/injection, schedule: Q01DX009 (ip), vehicle: saline
[3] = dose: 400.0 mg/kg/injection, schedule: Q01DX009 (ip), vehicle: saline
[4] = dose: 100.0 mg/kg/injection, schedule: Q01DX009 (ip), vehicle: saline with Tween-80
[5] = dose: 200.0 mg/kg/injection, schedule: Q01DX009 (ip), vehicle: saline with Tween-80
[6] = dose: 50.0 mg/kg/injection, schedule: Q01DX009 (ip), vehicle: saline
[7] = dose: 100.0 mg/kg/injection, schedule: Q04DX002 (ip), vehicle: Klucel (hydroxypropylcellulose) (HPC)
[8] = dose: 200.0 mg/kg/injection, schedule: Q04DX002 (ip), vehicle: Klucel (hydroxypropylcellulose) (HPC)
[9] = dose: 400.0 mg/kg/injection, schedule: Q04DX002 (ip), vehicle: Klucel (hydroxypropylcellulose) (HPC)
[10] = dose: 50.0 mg/kg/injection, schedule: Q01DX009 (ip), vehicle: saline with Tween-80
[11] = dose: 75.0 mg/kg/injection, schedule: Q01DX001 (ip), vehicle: saline
[12] = dose: 150.0 mg/kg/injection, schedule: Q01DX001 (ip), vehicle: saline
[13] = dose: 100.0 mg/kg/injection, schedule: Q01DX001 (ip), vehicle: saline
[14] = dose: 200.0 mg/kg/injection, schedule: Q01DX001 (ip), vehicle: saline
[15] = dose: 400.0 mg/kg/injection, schedule: Q01DX001 (ip), vehicle: saline
[16] = dose: 100.0 mg/kg/injection, schedule: Q04DX002 (ip), vehicle: saline
[17] = dose: 200.0 mg/kg/injection, schedule: Q04DX002 (ip), vehicle: saline
[18] = dose: 50.0 mg/kg/injection, schedule: Q01DX001 (ip), vehicle: carboxymethylcellulose (CMC)
[19] = dose: 100.0 mg/kg/injection, schedule: Q01DX001 (ip), vehicle: carboxymethylcellulose (CMC)
[20] = dose: 200.0 mg/kg/injection, schedule: Q01DX001 (ip), vehicle: carboxymethylcellulose (CMC)
[21] = dose: 100.0 mg/kg/injection, schedule: Q04DX003 (ip), vehicle: saline

Measured: T/C

C#CC(C)(C)CC
inactive: [1] 111 % of control | [2] 97 % of control | [3] 122 % of control

Cc1c(CNc2ccc(C(=O)NC(CC(=O)O)CC(=O)O)cc2)ccc2nc(N)nc(N)c12
inactive: dose: 0.11 mg/kg/injection, schedule: Q01DX009 (ip), vehicle: saline 97 % of control | dose: 0.15 mg/kg/injection, schedule: Q01DX009 (ip), vehicle: saline 107 % of control | dose: 1.25 mg/kg/injection, schedule: Q01DX009 (ip), vehicle: saline 112 % of control and 121 % of control | dose: 4.4 mg/kg/injection, schedule: Q01DX009 (ip), vehicle: other 91 % of control | dose: 10.0 mg/kg/injection, schedule: Q04DX003 (ip), vehicle: saline 102 % of control
active: dose: 0.17 mg/kg/injection, schedule: Q01DX009 (ip), vehicle: saline 178 % of control | dose: 0.27 mg/kg/injection, schedule: Q01DX009 (ip), vehicle: saline 161 % of control | dose: 0.62 mg/kg/injection, schedule: Q01DX009 (ip), vehicle: saline 156 % of control and 187 % of control | dose: 2.5 mg/kg/injection, schedule: Q04DX003 (ip), vehicle: saline 175 % of control | dose: 10.0 mg/kg/injection, schedule: Q01DX001 (ip), vehicle: other 173 % of control | dose: 10.0 mg/kg/injection, schedule: Q01DX001 (ip), vehicle: saline 168 % of control | dose: 20.0 mg/kg/injection, schedule: Q01DX001 (ip), vehicle: saline 151 % of control

O=C(CNc1ccccc1)NCc1ccccc1
inactive: [4] 92 % of control | [5] 95 % of control | dose: 400.0 mg/kg/injection, schedule: Q01DX009 (ip), vehicle: saline with Tween-80 97 % of control

CNP1(N(C)C)=NP(NC)(N(C)C)=NP(NC)(N(C)C)=N1 (stereo unspecified)
inactive: [6] 102 % of control | [1] 100 % of control | [2] 94 % of control

c1ccc(-c2c(-c3ccccc3)c(-c3ccccc3)c(-c3ccccc3)c(-c3ccccc3)c2-c2ccccc2)cc1
inactive: dose: 25.0 mg/kg/injection, schedule: Q01DX009 (ip), vehicle: water 104 % of control | dose: 50.0 mg/kg/injection, schedule: Q01DX009 (ip), vehicle: water 102 % of control | dose: 100.0 mg/kg/injection, schedule: Q01DX009 (ip), vehicle: water 96 % of control | dose: 200.0 mg/kg/injection, schedule: Q01DX009 (ip), vehicle: water 100 % of control | dose: 400.0 mg/kg/injection, schedule: Q01DX009 (ip), vehicle: water 97 % of control

Cc1cccc(NC(=O)Oc2ccc(-c3ccccc3)cc2)c1
inactive: dose: 100.0 mg/kg/injection, schedule: Q01DX009 (ip), vehicle: Klucel (hydroxypropylcellulose) (HPC) 98 % of control | [7] 95 % of control | dose: 200.0 mg/kg/injection, schedule: Q01DX009 (ip), vehicle: Klucel (hydroxypropylcellulose) (HPC) 97 % of control | [8] 88 % of control | dose: 400.0 mg/kg/injection, schedule: Q01DX009 (ip), vehicle: Klucel (hydroxypropylcellulose) (HPC) 97 % of control | [9] 88 % of control

O=C(C[n+]1cccc2ccccc21)c1ccc(-c2ccccc2)cc1
inactive: dose: 200.0 mg/kg/injection, schedule: Q01DX001 (ip), vehicle: Klucel (hydroxypropylcellulose) (HPC) 96 % of control

CC(=O)OC1(c2ccc(Cl)cc2)OC(=O)C(c2ccccc2)=C1Cc1ccccc1 (stereo unspecified)
inactive: dose: 12.5 mg/kg/injection, schedule: Q01DX009 (ip), vehicle: saline with Tween-80 93 % of control | dose: 25.0 mg/kg/injection, schedule: Q01DX009 (ip), vehicle: saline with Tween-80 86 % of control | [10] 86 % of control | [5] 95 % of control

O=C1c2ccccc2C(=O)N1/N=C/c1cc(Cl)cc(Cl)c1O
inactive: [11] 91 % of control | [12] 93 % of control | dose: 300.0 mg/kg/injection, schedule: Q01DX001 (ip), vehicle: saline 93 % of control

Clc1ccccc1-n1cc(-c2ccccc2)nn1
inactive: [7] 114 % of control | [8] 108 % of control | [9] 108 % of control

CCOC(=O)C(=O)Nc1ccccc1C(=O)O
inactive: dose: 100.0 mg/kg/injection, schedule: Q04DX009 (ip), vehicle: saline with Tween-80 96 % of control | dose: 200.0 mg/kg/injection, schedule: Q04DX009 (ip), vehicle: saline with Tween-80 103 % of control | dose: 400.0 mg/kg/injection, schedule: Q04DX009 (ip), vehicle: saline with Tween-80 102 % of control

Cc1ccc(S(=O)(=O)NC(=O)N(C)c2cc(N3CCCC3)ccn2)cc1
inactive: [13] 102 % of control | [14] 96 % of control | [15] 100 % of control

O=C(O)Cn1nnc2ccccc21
inactive: [6] 94 % of control | [2] 94 % of control
active: [1] 249 % of control

C/C(C(=O)O)=C(\C)C(=O)O
inactive: [1] 104 % of control | [16] 108 % of control | [2] 97 % of control | [17] 104 % of control | [3] 108 % of control | dose: 400.0 mg/kg/injection, schedule: Q04DX002 (ip), vehicle: saline 101 % of control

C1=CC(c2ccccc2)=C(c2ccccc2)C(c2ccccc2)C(c2ccccc2)=C1 (stereo unspecified)
inactive: [18] 94 % of control | [19] 96 % of control | [20] 96 % of control | dose: 400.0 mg/kg/injection, schedule: Q01DX001 (ip), vehicle: carboxymethylcellulose (CMC) 89 % of control

Nc1cc2ccccc2cn1
inactive: dose: 100.0 mg/kg/injection, schedule: Q04DX003 (ip), vehicle: Klucel (hydroxypropylcellulose) (HPC) 112 % of control | dose: 200.0 mg/kg/injection, schedule: Q04DX003 (ip), vehicle: Klucel (hydroxypropylcellulose) (HPC) 102 % of control | dose: 400.0 mg/kg/injection, schedule: Q04DX003 (ip), vehicle: Klucel (hydroxypropylcellulose) (HPC) 107 % of control

CNC(=O)c1ccc[n+](Cc2ccccc2)c1
inactive: dose: 18.75 mg/kg/injection, schedule: Q01DX009 (ip), vehicle: saline 94 % of control | dose: 37.5 mg/kg/injection, schedule: Q01DX009 (ip), vehicle: saline 100 % of control | dose: 37.5 mg/kg/injection, schedule: Q04DX003 (ip), vehicle: saline 97 % of control | [11] 106 % of control | dose: 75.0 mg/kg/injection, schedule: Q01DX009 (ip), vehicle: saline 92 % of control | dose: 75.0 mg/kg/injection, schedule: Q04DX003 (ip), vehicle: saline 101 % of control | [12] 101 % of control | dose: 150.0 mg/kg/injection, schedule: Q04DX003 (ip), vehicle: saline 100 % of control

O=C1C2C(C(=O)N1c1cccc3ccccc13)C1(Cl)C(Cl)=C(Cl)C2(Cl)C1(Cl)Cl (stereo unspecified)
inactive: dose: 12.5 mg/kg/injection, schedule: Q01DX009 (ip), vehicle: Klucel (hydroxypropylcellulose) (HPC) 103 % of control | dose: 25.0 mg/kg/injection, schedule: Q01DX009 (ip), vehicle: Klucel (hydroxypropylcellulose) (HPC) 104 % of control | dose: 50.0 mg/kg/injection, schedule: Q01DX009 (ip), vehicle: Klucel (hydroxypropylcellulose) (HPC) 96 % of control

COC1=C2C=[N+](C)C3C(=C2C=CC1OC)Cc1cc2c(cc13)OCO2 (stereo unspecified)
inactive: [18] 104 % of control | [19] 107 % of control | [20] 102 % of control

CC(=O)OC1CC2(Cl)C(Cl)=C(Cl)C1(Cl)C2(Cl)Cl (stereo unspecified)
inactive: [13] 100 % of control | [21] 89 % of control | [14] 98 % of control | [15] 98 % of control | dose: 400.0 mg/kg/injection, schedule: Q04DX003 (ip), vehicle: saline 103 % of control

COc1ccc(NC2=CC(=O)C(=O)c3ccccc32)nn1
inactive: [13] 91 % of control | [14] 89 % of control | [15] 95 % of control

CCOC(=O)CCC(NC(=O)c1cccc(N(C)C=O)c1)C(=O)OCC (stereo unspecified)
inactive: [10] 100 % of control | [4] 92 % of control | [5] 93 % of control

CN(C)C
inactive: [6] 101 % of control | [16] 105 % of control | [21] 98 % of control | [17] 97 % of control | dose: 200.0 mg/kg/injection, schedule: Q04DX003 (ip), vehicle: saline 94 % of control

C=C1C(=O)OCC1C(=O)O (stereo unspecified)
inactive: [11] 98 % of control
